Consider nine compounds from patent publication US20230312587A1, “PTERIDINONE COMPOUNDS AND USES THEREOF” (Vertex Pharmaceutical Incorporated, priority 2018, published 2023).

In experiment [1] the test system is β-catenin-TCF-mediated reporter transcription activity in Colo 205 cells. In words: Colo 205 reporter assay (TCF/LEF luciferase). In kind it is cell-based. Conditions: Homo sapiens, COLO 205, 5 h, Colo 205 TCF/LEF luciferase reporter, five hours after addition of compound; read-out: TCF reporter Colo205 IC50. Put shortly: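 Luciferase signal from a TCF/LEF-driven reporter, stably integrated in Colo 205 colon cancer cells, was measured 5 h after compound addition.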
On the technique in general: In a reporter assay the amount or activity of a reporter protein is the signal.

The test system of experiment [2] is Colo205-TCF/LEF-Luciferase (Luc) tumor. Put plainly: In vivo inhibition of TCF/LEF reporter activity in Colo-205 tumors. More on the design: concentration or dose not given beside the values. The conditions noted are these: TCF/LEF luciferase reporter in Colo-205 tumors, nu/nu mice, oral gavage. Here is the method:
Colo205-TCF/LEF-Luciferase (Luc) tumor cells were expanded in complete DMEM cell culture media [DMEM (Life Technologies, product #11960-051) media supplemented with 10% FBS (Hyclone, catalog #SH30071.03), antimycotic/antibiotic (Life Technologies, product #15240-062), and Glutamax (Life Technologies, product #35050-061)] with 1 ug/ml puromycin. After reaching confluency/high density, the loosely attached cells in media were transferred from the flask to 50 ml conical tubes. Tumor cells adhered to plastic were detached with trypsin and combined with cells in the conical tubes. The tumor cells were triturated, counted, and pelleted by centrifugation. Cell pellets were resuspended in 0.9% injectable saline (6×10^7 cells/ml). A 50 ul volume (3×10^6 cells) was injected subcutaneously in the flanks of 4-6 wk old female nu/nu mice (Charles River Laboratories). Approximately 13-16 days after implantation, tumors between 200-500 mm^3 were selected (based on caliper measurements and applying the formula […]) and randomized into groups of n=4. Mice were dosed by oral gavage with compound dissolved in 1:3:5:1 EtOH:DMSO:PEG-400:H2O at a rate of 10 ml/kg or 1:3:5:1 EtOH:DMSO:PEG-400:H2O alone (Vehicle Control). Tumors were collected from mice euthanized by CO2 inhalation and snap frozen in liquid nitrogen. Tumors were stored in a −80 degrees C. freezer until they were processed.
Tumors were thawed on ice and homogenized in cold Lysis Buffer (20 mM Tris-HCl (pH 7.5), 150 mM NaCl, 1 mM Na2EDTA, 1 mM EGTA, 1% Triton, 2.5 mM sodium pyrophosphate, 1 mM beta-glycerophosphate, 1 mM Na3VO4, 1 μg/ml leupeptin, 0.05% SDS) using a closed tissue grinder system (Fisher Scientific, Cat #02-542-09) on ice according to manufacturer's instructions. For 100 mg of tumor, 500 uL of Lysis Buffer was used. Tumor lysate was transferred to a pre-chilled microcentrifuge tube and centrifuged at 10,000×g for 10 minutes at 4 degrees C. Supernatant was transferred to a new pre-chilled microcentrifuge tube and was used immediately for analysis of protein content and luciferase activity.
Protein content of tumor lysate supernatant was determined using the BCA assay (Life Technologies Cat #23225). Luciferase activity of tumor lysate supernatant was determined by addition of Steady-Glo luminescence reagent (Promega, Cat #E2550) according to manufacturer's instructions and measurement on a Pherastar luminescence plate reader (BMG Labtech). Luciferase activity was normalized to protein content.

SMILES strings stand for the structures.

As for `Cc1nc(NCc2cnn(Cc3cnc(C(C)C)o3)c2)nc2c1NC(=O)[C@H](C(C)C)N2C` [Compound 517, (S)-7-isopropyl-2-(((1-((2-isopropyloxazol-5-yl)methyl)-1H-pyrazol-4-yl)methyl)amino)-4,8-dimethyl-7,8-dihydropteridin-6(5H)-one], in experiment [1], the IC50 is less than 300 nM. Moreover, the “Percent Remaining Activity at 8 hrs after Dosing” value (from here on “Percent Remaining Activity”) in experiment [2] was found to be 93%.
On to `Cc1nc(NCc2cnn(Cc3ccc(C(F)(F)F)o3)c2)nc2c1NC(=O)[C@H](C(C)C)N2C` [Compound 518, (S)-7-isopropyl-4,8-dimethyl-2-(((1-((5-(trifluoromethyl)furan-2-yl)methyl)-1H-pyrazol-4-yl)methyl)amino)-7,8-dihydropteridin-6(5H)-one], for which, in experiment [1], the IC50 is less than 300 nM. Moreover, in experiment [2], the “Percent Remaining Activity” value amounted to 21%.
Taken in the same sequence, the figures for `Cc1nc(N[C@@H]2CCc3nn(Cc4ccc(C(F)(F)F)nc4)cc32)nc2c1NC(=O)[C@H](C(C)C)N2C` [Compound 522, (S)-7-isopropyl-4,8-dimethyl-2-(((R)-2-((6-(trifluoromethyl)pyridin-3-yl)methyl)-2,4,5,6-tetrahydrocyclopenta[c]pyrazol-4-yl)amino)-7,8-dihydropteridin-6(5H)-one] were less than 300 nM and 91%.
Taken in the same sequence, the figures for `Cc1nc(N[C@H]2C[C@@H](Nc3cc(C(F)(F)F)ncn3)C2)nc2c1NC(=O)[C@H](C(C)C)N2C` [Compound 528, (S)-7-isopropyl-4,8-dimethyl-2-((cis-3-((6-(trifluoromethyl)pyrimidin-4-yl)amino)cyclobutyl)amino)-7,8-dihydropteridin-6(5H)-one] were less than 300 nM and 28%.
In the same order, the values of `COc1c(F)cc(C(=O)N2CC(Nc3nc(C)c4c(n3)N(C)[C@@H](C(C)C)C(=O)N4)C2)cc1F` [Compound 542, (S)-2-((1-(3,5-difluoro-4-methoxybenzoyl)azetidin-3-yl)amino)-7-isopropyl-4,8-dimethyl-7,8-dihydropteridin-6(5H)-one] are less than 300 nM and 22%.
`Cc1nc(NC2CN(C(=O)c3ccc(C(F)(F)F)nc3)C2)nc2c1NC(=O)[C@H](C(C)C)N2C` [Compound 545, (S)-7-isopropyl-4,8-dimethyl-2-((1-(6-(trifluoromethyl)nicotinoyl)azetidin-3-yl)amino)-7,8-dihydropteridin-6(5H)-one]: the IC50 in experiment [1] lay in the range of 300 to 1000 nM. In addition, the “Percent Remaining Activity” value in experiment [2] came to 51%.
For the compound `Cc1nc(NC2CN(C(=O)c3ccc(Cl)nc3)C2)nc2c1NC(=O)[C@H](C(C)C)N2C` [Compound 549, (S)-2-((1-(6-chloronicotinoyl)azetidin-3-yl)amino)-7-isopropyl-4,8-dimethyl-7,8-dihydropteridin-6(5H)-one], in experiment [1], the IC50 is 1000 to 5000 nM. Further, the “Percent Remaining Activity” value in experiment [2] is 30%.
In the same order, the values of `Cc1nc(N[C@H]2C[C@@H](Nc3ccc(C(F)(F)F)nn3)C2)nc2c1NC(=O)[C@H](C(C)C)N2C` [Compound 556, (S)-7-isopropyl-4,8-dimethyl-2-((cis-3-((6-(trifluoromethyl)pyridazin-3-yl)amino)cyclobutyl)amino)-7,8-dihydropteridin-6(5H)-one] are less than 300 nM and 62%.
In the same order, the values of `Cc1nc(N[C@H]2C[C@@H](Nc3cnc(C(F)(F)F)cn3)C2)nc2c1NC(=O)[C@H](C(C)C)N2C` [Compound 557, (S)-7-isopropyl-4,8-dimethyl-2-((cis-3-((5-(trifluoromethyl)pyrazin-2-yl)amino)cyclobutyl)amino)-7,8-dihydropteridin-6(5H)-one] are less than 300 nM and 20%.

One may read the IC50 as the concentration needed to halve the response being measured.
